Experimental data: patent US9943529B2, “Methods for reducing cellular proliferation and treating certain diseases” (BRIGHAM YOUNG UNIVERSITY, priority 2013, dated 2018)

Legend:
Conditions in all cases: 10 μM, 48 hours
[1] = system: HCT-15
[2] = system: MDA-MB-468; test: NCI screen antiproliferative activity, sulforhodamine B, Breast Cancer panel; format: cell-based, human
Protocol: (§1) The antiproliferative activity of compounds were determined in the National Cancer Institute (NCI) screen (Drug. Dev. Res. 1995, 34, 91-109; J. Natl. Cancer Inst. 1990, 82, 1107-1112; Drug Dev. Res. 1995, 34, 91-109). For certain compounds, cells of approximately 60 different human cancer cell lines were incubated for 48 hours with five 10-fold dilutions of the tested compounds starting from 100 μM and then treated with sulforhodamine B dye. For other compounds, cells of approximately 60 different human cancer cell lines were incubated for 48 hours with a concentration of 10 μM test compound. The ratios of recorded optical densities relative to that of the control were plotted as a function of the common logarithm of the tested compound concentrations or growth percent (for single concentration tests). The interpolation between the points located above and below the 50% percentage growth provided 50% growth inhibition (GI50) values. Total growth inhibition (TGI) and 50% lethal concentrations (LC50) were also calculated using reported methods. A “-” means not tested and/or not-determined.

[3] = system: HOP-62
[4] = system: SW-620; test: NCI screen antiproliferative activity, sulforhodamine B, Colon Cancer panel; format: cell-based, human
[5] = system: SK-MEL-2
[6] = system: PC-3
[7] = system: SF-268
[8] = system: NCI-H322M
[9] = system: BT-549
[10] = system: HCC-2998
[11] = system: SF-539
[12] = system: MOLT-4; test: NCI screen antiproliferative activity, sulforhodamine B, Leukemia panel; format: cell-based, human
[13] = system: RPMI-8226; test: as above; format: cell-based, human
[14] = system: SR; test: as above; format: cell-based, human
[15] = system: A498; test: NCI screen antiproliferative activity, sulforhodamine B, Renal Cancer panel; format: cell-based, human
Protocol: as §1

[16] = system: COLO 205; test: NCI screen antiproliferative activity, sulforhodamine B, Colon Cancer panel; format: cell-based, human
[17] = system: HS 578T; test: NCI screen antiproliferative activity, sulforhodamine B, Breast Cancer panel; format: cell-based, human
[18] = system: NCI-H226
[19] = system: SK-MEL-28
[20] = system: HL-60(TB); test: NCI screen antiproliferative activity, sulforhodamine B, Leukemia panel; format: cell-based, human
Protocol: as §1

[21] = system: CCRF-CEM; test: as above; format: cell-based, human
Protocol: as §1

[22] = system: LOX IMVI; test: NCI screen antiproliferative activity, sulforhodamine B, Melanoma panel; format: cell-based, human
[23] = system: KM12; test: NCI screen antiproliferative activity, sulforhodamine B, Colon Cancer panel; format: cell-based, human
[24] = system: OVCAR-3
[25] = system: RXF 393
[26] = system: SNB-19
[27] = system: M14
[28] = system: NCI-H460
[29] = system: NCI-H23
[30] = system: OVCAR-8
[31] = system: K-562; test: NCI screen antiproliferative activity, sulforhodamine B, Leukemia panel; format: cell-based, human
[32] = system: A549/ATCC
[33] = system: HT29
[34] = system: HOP-92
[35] = system: SK-MEL-5; test: NCI screen antiproliferative activity, sulforhodamine B, Melanoma panel; format: cell-based, human
[36] = system: OVCAR-5
[37] = system: NCI/ADR-RES; test: NCI screen antiproliferative activity, sulforhodamine B, Ovarian Cancer panel; format: cell-based, human
Protocol: as §1

[38] = system: UO-31
[39] = system: SNB-75
[40] = system: OVCAR-4
[41] = system: MCF7
[42] = system: MALME-3M; test: NCI screen antiproliferative activity, sulforhodamine B, Melanoma panel; format: cell-based, human
[43] = system: SK-OV-3
[44] = system: SN12C
[45] = system: IGROV1
[46] = system: MDA-MB-435
[47] = system: CAKI-1
[48] = system: MDA-MB-231/ATCC
[49] = system: NCI-H522
[50] = system: 786-0
[51] = system: ACHN
[52] = system: HCT-116
[53] = system: DU-145
[54] = system: UACC-62
[55] = system: TK-10
[56] = system: T-47D

CCCCCCCCOC(=O)CC[C@@H](C)[C@H]1CC[C@H]2[C@@H]3[C@H](OC(=O)CCN)C[C@@H]4C[C@H](OC(=O)CCN)CC[C@]4(C)[C@H]3C[C@H](OC(=O)CCN)[C@]12C [CSA-44]
Growth Percent [1]: 101.79%
Growth Percent [2]: 3.95%
Growth Percent [3]: 37.66%
Growth Percent [4]: 20.01%
Growth Percent [5]: 126.21%
Growth Percent [6]: 87.30%
Growth Percent [7]: 69.72%
Growth Percent [8]: 71.42%
Growth Percent [9]: 124.30%
Growth Percent [10]: 84.20%
Growth Percent [11]: 56.26%
Growth Percent [12]: 26.15%
Growth Percent [13]: 77.75%
Growth Percent [14]: −12.92%
Growth Percent [15]: 130.78%
Growth Percent [16]: 66.35%
Growth Percent [17]: 79.51%
Growth Percent [18]: 89.76%
Growth Percent [19]: 58.43%
Growth Percent [20]: 43.69%
Growth Percent [21]: −37.46%
Growth Percent [22]: 63.17%
Growth Percent [23]: 77.75%
Growth Percent [24]: 107.53%
Growth Percent [25]: 108.72%
Growth Percent [26]: 115.74%
Growth Percent [27]: 84.43%
Growth Percent [28]: 73.70%
Growth Percent [29]: 90.31%
Growth Percent [30]: 69.53%
Growth Percent [31]: −74.53%
Growth Percent [32]: 81.31%
Growth Percent [33]: 39.62%
Growth Percent [34]: 40.75%
Growth Percent [35]: 96.98%
Growth Percent [36]: 92.12%
Growth Percent [37]: 100.83%
Growth Percent [38]: 104.69%
Growth Percent [39]: 63.88%
Growth Percent [40]: 75.66%
Growth Percent [41]: 10.84%
Growth Percent [42]: 67.83%
Growth Percent [43]: 90.91%
Growth Percent [44]: 77.59%
Growth Percent [45]: 77.22%
Growth Percent [46]: 74.13%
Growth Percent [47]: 107.94%
Growth Percent [48]: 69.26%
Growth Percent [49]: 10.80%
Growth Percent [50]: 99.05%
Growth Percent [51]: 96.19%
Growth Percent [52]: 49.30%
Growth Percent [53]: 74.35%
Growth Percent [54]: 103.61%
Growth Percent [55]: 135.94%
Growth Percent [56]: 88.83%
